Assay: molar heat capacity at constant pressure
Conditions: Liquid, Flow calorimetry

CO [methanol]
molar heat capacity at constant pressure [J/K/mol]
Conditions | 248.15 K | 273.15 K | 298.15 K | 323.15 K | 348.15 K | 373.15 K | 398.15 K | 423.15 K | 473.15 K
500 kPa | 74.02 | 77.03 | 81.39 | 86.87 | 93.66 | 101.83 | – | – | –
1000 kPa | 74.02 | 77 | 81.35 | 86.8 | 93.59 | 101.76 | 111.86 | – | –
2500 kPa | 73.95 | 76.93 | 81.19 | 86.64 | 93.43 | 101.41 | 111.28 | 122.98 | –
5000 kPa | 73.89 | 76.84 | 81.07 | 86.45 | 93.18 | 101 | 110.38 | 121.41 | 162.32
7500 kPa | 73.79 | 76.8 | 81.03 | 86.29 | 92.92 | 100.64 | 109.58 | 120.03 | 152.94
10000 kPa | 73.79 | 76.77 | 80.91 | 86.13 | 92.73 | 100.23 | 108.97 | 118.84 | 146.91
12500 kPa | 73.76 | 76.74 | 80.91 | 86 | 92.41 | 99.97 | 108.33 | 117.85 | 142.75

Reference: the NIST ThermoML archive (doi:10.1016/j.jct.2005.03.012)
